{"source": "patent US10363229B2", "about": "“Methods and compositions for the treatment of cancer” (priority 2009, dated 2019)", "key": {"[1]": {"test_system": "CEM cells, leukemic T-cell lymphocytes", "test": "Apoptosis of leukemic lymphocytes, FITC-annexinV/propidium iodide microscopy", "type": "cell-based, human", "settings": "for apoptotic leukemic lymphocytes: 20 hours", "method": "(§1) Cloudman S-91 mouse melanoma cells (sub-clone M-3, CCL 53.1; American Type Culture Collection, Rockville, Md.) were grown in RMPI medium supplemented with 10% fetal bovine serum (Invitrogen, Inc) and 5% penicillin-streptomycin (Invitrogen, Inc). Mouse breast cancer cells (66Cl-1; American Type Culture Collection, Rockville, Md.) that are estrogen-receptor negative were grown in DMEM medium supplemented with 10% fetal bovine serum (Invitrogen, Inc) and 5% penicillin/streptomycin (Invitrogen, Inc). Human T-cell leukemic lymphocytes (CEM; American Type Culture Collection, Rockville, Md.) were grown in MEM medium supplemented with 7% fetal calf serum. Cultures were passaged twice a week.\nCEM cells, leukemic T-cell lymphocytes obtained from a child with acute lymphocytic leukemia, were maintained in Petri dishes in MEM (minimal essential medium) with 7% fetal calf serum in a 5% CO2 incubator at 37° C. For experiments, methyl sulfone was added to the medium at concentrations from 0-6.0%. In control cells, no methyl sulfone was added. Cells (2×10^6 per ml) were incubated for 20 hrs in the presence or absence of methyl sulfone, and then assayed for apoptosis using FITC-annexinV/propidium iodide microscopy. Methyl sulfone was also compared to the anti-microtubule drug, vinblastine. Vinblastine (VNB) and its derivative, vincristine, are standard treatments for acute lymphocytic leukemia, as well as other cancers. We used the concentration of VNB that is found in the blood of subjects being treated with this drug (10^−7 M) (6,7)."}, "[2]": {"test_system": "neutrophils from healthy volunteers", "test": "Apoptosis of normal neutrophils by Flow Cytometry", "type": "cell-based, human", "settings": "10% methyl sulfone, 20 hours", "method": "(§2) Blood was drawn from healthy volunteers and white blood cells (e.g., lymphocytes, neutrophils) were enriched using Ficoll-Plaque. Cells were incubated in Petri dishes containing MEM with 7% fetal calf serum in a CO2 (5%) incubator at 37° C.; Methyl sulfone was present at concentrations of 0, 3, 6, or 10%. After 20 hours, cells were incubated with antibodies specific to T-lymphocytes (CD3 and CD4 T-cells), B-lymphocytes (B-cells) and neutrophils, and the percent of apoptotic cells was determined by Flow Cytometry. This is a technique that identifies specific cell types (e.g., CD3 T-cells, CD4 T-cells, B-cells, neutrophils) within a mixed population of blood cells, and then determines whether the cells are alive or apoptotic.\n(§3) After 20 hours, cells were incubated with fluorescent antibodies to identify T-cells, B-cells and neutrophils, and then processed by Flow Cytometry (FIG. 15)."}, "[3]": {"settings": "20° C.; cited from earlier work"}, "melanoma cells": {"test_system": "melanoma cells", "test": "Cell proliferation, BrdU incorporation into DNA", "type": "cell-based, mouse", "settings": "2% methyl sulfone", "method": "Cells were plated onto sterile 12 mm coverslips in 35 mm tissue culture plates and incubated at 37° C., 5% CO2. After 24 hours, 2% methyl sulfone in medium or medium alone was added the plates and incubated at 37° C., 5% CO2 for 48 and 72 hrs. BrdU (Molecular Probes, Eugene, Oreg., USA; diluted ⅓ in RPMI medium) was added to each plate for 60 minutes at 37° C., 5% CO2. Coverslips were transferred to porcelain holders, washed with PBS, fixed in methanol/acetone (1:1), washed with PBS, and incubated in 5% BSA/PBS for 30 minutes at room temperature. To denature DNA, coverslips were placed in 0.1N HCL/1% Triton X-100 for 10 minutes at room temperature. After washing in PBS, cells were incubated with Alexa Fluor 488 anti-BrdU antibody (Molecular Probes, Eugene, Oreg.; diluted 1/20 in 5% BSA/PBS) for 60 minutes at room temperature. Cells were washed in PBS and incubated with Hoechst (diluted 1/1000 in PBS) in the dark at room temperature. After washing in PBS, cells were dipped in dH2O and drained onto Kim Wipes. SlowFade mounting medium (Molecular Probes, Eugene, Oreg.) was added to a glass slide and coverslips were placed face down onto slides and sealed with clear nail polish. […]"}, "[4]": {"test_system": "Cloudman S-91 mouse melanoma cells (sub-clone M-3)", "test": "Annexin V-FITC/propidium iodide apoptosis assay in melanoma cells", "type": "cell-based", "method": "as §1\nEarly and late apoptosis was assessed with the Annexin V-FITC Apoptosis Detection Kit from PharMingen (Becton-Dickinson, San Diego, Calif.). Images were obtained at the Center for Cell Analysis and Modeling, University of Connecticut Health Center, Farmington, Conn., with an Axioplan CCD Microscope equipped with a 40×1.3 NA FL objective lens and Photometrics PXL-EEV37 high speed digital cooled CCD camera via Metamorph image acquisition and analysis software (Universal Imaging Corp., Downington, Pa.).\nM3 Cloudman melanoma cells were plated into culture dishes containing RPMI medium. After 24 hour media was changed to control medium (no drug) or to media containing different concentrations of methyl sulfone (1-10% methyl sulfone in RPMI medium). Cells were examined by live cell video microscopy immediately after adding drug and every 24 hours up to 144 hours.\nBriefly, melanoma cells (Cloudman M3 cell line) were plated at 10^5 cells/ml in RPMI medium. After 24 hours, medium was replaced with RPMI containing different concentrations (grams/volume) of MMS, MES and EES. After 24 hours, apoptosis was assayed using the Becton-Dickinson Annexin V-FITC/Propidium Iodide Kit and a Nikon fluorescent microscope as described by the manufacturer."}, "CEM leukemic lymphocytes": {"test_system": "CEM leukemic lymphocytes", "test": "Apoptosis of leukemic lymphocytes by Flow Cytometry", "type": "cell-based, human", "method": "CEM leukemic lymphocytes were also incubated in the presence or absence of 10% methyl sulfone.\nas §3"}, "[5]": {"test_system": "B-cells from healthy volunteers", "test": "Apoptosis of normal B-cells by Flow Cytometry", "type": "cell-based, human", "settings": "10% methyl sulfone, 20 hours", "method": "as §2, §3"}}, "data": [{"substance": "methyl sulfone", "values": [{"measurement": "apoptotic leukemic lymphocytes", "setting": "[1]; 4% methyl sulfone", "value": 74, "unit": "%"}, {"measurement": "apoptotic leukemic lymphocytes", "setting": "[1]; 6% methyl sulfone", "value": 88, "unit": "%"}, {"measurement": "effectiveness against leukemic lymphocytes compared with vinblastine", "setting": "[1]; comparison with 10^−7 M vinblastine", "value": "more effective than vinblastine"}, {"measurement": "effect on neutrophils", "setting": "[2]", "value": "unharmed"}, {"measurement": "approximate water solubility", "setting": "[3]", "value": "~150", "unit": "mg/mL"}, {"measurement": "cells synthesizing DNA (BrdU incorporation)", "setting": "melanoma cells; 48 hours (control 14%)", "value": 0.03, "unit": "%"}, {"measurement": "cells synthesizing DNA (BrdU incorporation)", "setting": "melanoma cells; 72 hours (control 21%)", "value": 0, "unit": "%"}, {"measurement": "apoptosis of melanoma cells", "setting": "[4]; 6% methyl sulfone, 24 hours", "value": "induced into apoptosis"}, {"measurement": "apoptosis of M3 cells compared with MES or EES", "setting": "[4]; 24 hours, especially at less than 5%", "value": "significantly less apoptosis"}, {"measurement": "window of concentrations between killing cancer cells and harming normal cells", "setting": "[4]; conclusion from FIGS. 16 and 17", "value": "wide window"}, {"measurement": "methyl sulfone concentration at which melanoma cells became apoptotic", "setting": "[4]; melanoma cells, FIG. 1 legend", "value": "over 2%"}, {"measurement": "CEM leukemic lymphocytes killed", "setting": "CEM leukemic lymphocytes; 10% methyl sulfone, 20 hours", "value": 92, "unit": "%"}, {"measurement": "leukemic cells induced into apoptosis", "setting": "CEM leukemic lymphocytes; summary in the description, concentration not given", "value": "more than 90%"}, {"measurement": "effect on B-cells", "setting": "[5]", "value": "unharmed"}]}]}
